The values below come from US20020114804A1, “A METHOD OF TREATING INFECTION OF SUTURES AND PROSTHETIC DEVICES” (priority 1996, published 2002).

What all share (type): cell-based, human
The subject of test [1] is PMNs. As to the kind of experiment: PMN migration through fibrin gels in Boyden-type chemotaxis chambers. How it is done:
(§1) Becton-Dickinson cell culture inserts (pore sizes 3 or 8 μm: Franklin Lakes, N.J.) were overlaid with the following proteins:
Fibrin gels: 1 Unit of thrombin (a gift from Dr. John Fenton, Albany Medical College, Albany, N.Y.), in 5 μl of PBS was added first to each insert. 0.1 ml phosphate buffered saline supplemented with Ca^2+ and Mg^2+ (PBS) containing 100 μg commercial grade fibrinogen (Calbiochem. Inc., San Diego, Calif.) or purified fibrinogen [a gift from Dr. Jeffery Weitz, (MacMaster University, Hamilton, On.)] was then placed into each 8.2 mm diameter insert on top of the thrombin. The mixture was incubated at 37° C. for 5 min to allow fibrin gel formation (determined by visual inspection). 1 Unit PPACK (Calbiochem Inc., San Diego, Calif.; 10^−5 M final concentration), in 100 μl medium was added to each insert to inhibit thrombin, and gels were washed with 250 μl PBS to remove inactivated thrombin. The fibrin gels formed were about 1 mm thick as measured under a dissecting microscope.
(§2) PMNs were prepared from fresh heparinized blood from healthy adult volunteers by sedimentation on Ficoll-Hypaque gradients. Contaminating red blood cells were removed by hypotonic lysis, as described (7). The purity of PMN isolated by this method is >95% as determined by Wright-Giemsa staining (7). 10^6 PMNs in 250 μl of PBS supplemented with 5.5 mM glucose and 0.1% human serum albumin (PBSG-HSA), were placed in the upper compartment of each insert and incubated for 0-6 hrs at 37° C. in a humidified atmosphere containing 95% air/5% CO2. At the times and concentrations specified, chemoattractants/cytokines were added to the top or bottom compartment in 250 μl of PBSG-HSA. At the end of the incubation, the chambers were shaken to dislodge PMNs from the lower surface of the inserts. The medium in each lower compartment was collected and its content of PMNs was determined using either a Coulter Counter or a hemocytometer. Both methods gave similar results. Counts are expressed as the average number of PMNs that migrated into the lower compartment. Unless otherwise indicated, all values reported are the average of six data points from at least 3 independent experiments.

Test [2] deals with PMNs. As to the kind of experiment: PMN migration through gels of Matrigel or collagen IV. Conditions: added to the bottom chamber. How it is done:
as §1
Collagen type IV and Matrigel matrices: 0.1 ml PBS containing 100 μg human placental collagen IV (Fluka Chemical Corp., Ronkonkoma, N.Y.), or 80 μg of reconstituted basement membrane proteins (Matrigel, Collaborative Research, Bedford, Mass.), was placed into each insert and allowed to gel at room temperature for 24 hrs.
as §2, with “At the end of the incubation, the chambers were shaken to dislodge PMNs from the lower surface of the inserts.” left out, “Both methods gave similar results.” left out, “Unless otherwise indicated, all values reported are the average of six data points from at least 3 independent experiments.” left out

Test [3] concerns PMNs. As to the kind of experiment: PMN migration through filters coated with fibrinogen or fibronectin. How it is done: as §1
Fibrinogen or fibronectin: 0.1 ml of PBS containing 100 μg/ml fibrinogen or fibronectin (New York Blood Center, New York, N.Y.), was placed into each insert (pore size 3 μm). Inserts were incubated at 37° C. for 60 min and washed with 250 μl of PBS. Filters coated with fibrinogen or fibronectin were diffusely fluorescent as visualized by epifluorescent microscopy when incubated with the corresponding antibody [fluorescein-labeled anti-fibrinogen, or anti-fibronectin monoclonal antibodies (Cappel, Malvern, Pa.)], while uncoated filters, or filters incubated with fluorescein-labeled antibody of the opposite specificity, were not.
PMNs were prepared from fresh heparinized blood from healthy adult volunteers by sedimentation on Ficoll-Hypaque gradients. Contaminating red blood cells were removed by hypotonic lysis, as described (7). The purity of PMN isolated by this method is >95% as determined by Wright-Giemsa staining (7). […] The medium in each lower compartment was collected and its content of PMNs was determined using either a Coulter Counter or a hemocytometer. […] Counts are expressed as the average number of PMNs that migrated into the lower compartment. […]

Test [4] deals with PMNs. As to the kind of experiment: Exclusion of rhodamine-labeled polyethylene glycol (Rh-PEG) from zones of adhesion of PMNs. Conditions: fMLP in combination with IL-8 or LTB4, fibrin. How it is done: Rh-PEG binds avidly to protein-coated surfaces, and can be detected easily by its fluorescence. Individual wells on glass microslides (Carlson Scientific, Peotone, Ill.) were coated with either fibrin, Matrigel or collagen IV in a manner similar to that for coating cell culture inserts except that 20 μl of the various solutions were used per well. 20 μl of PMNs (10^6 cells/ml in PBSG-HSA) were added to each well and PMNs were allowed to adhere for 15 mins at 37°. The cells were washed in PBS, fixed with 3.7% paraformaldehyde in PBS for 10 min, washed again with PBS, and further incubated with 10 kDa Rh-PEG at room temperature for 60 min. The preparation then was washed with PBS and immediately observed by phase and fluorescent microscopy at 400× magnification. Average values from three different experiments are reported as the percentage of PMNs that excluded Rh-PEG from zones of adherence between the cells and the underlying matrix.

Test [5] concerns monocytes. As to the kind of experiment: Monocyte migration through Matrigel or Matrigel/tenascin coated filters. Conditions: for Inhibition of chemoattractant-stimulated monocyte migration: Matrigel-coated filters, depending on chemoattractant, human tenascin 5 μg. From the text:
Mononuclear cells were isolated by centrifugation of heparinized human blood on Ficoll-Hypaque gradients as described (65, 66). The mononuclear cell fraction was resuspended in RMPI 1640 medium supplemented with 10% pooled human serum or autologous serum and used immediately for monocyte migration studies. For some experiments, monocytes were obtained by centrifugation of whole blood or of white blood cells concentrated from a unit of blood (leukopak), on Nycodenz gradients as described (39). More than 90% of the nucleated cells obtained by this Nycodenz method were monocytes, as assessed by their ability to phagocytose IgG-coated red blood cells.
(§3) Cultured monocytes were prepared by allowing 10^7 total mononuclear cells, suspended in 10 ml of RMPI 1640 medium supplemented with 10% pooled human serum (1640+HS), or 10% autologous serum (1640+AS), to adhere to Falcon T-150 tissue culture Petri dishes for 2 h at 37° C. Non-adherent cells were removed by washing, leaving an adherent cell population consisting of greater than 98% monocytes as measured by their capacity to phagocytose IgG coated sheep red blood cells. For migration studies, monocytes were maintained in culture for 24 h in RPMI 1640+HS or AS, and detached from the dishes by gentle pipetting of 10 ml of ice cold phosphate buffered saline (without Ca^2+ or Mg^2+) containing 1.0 mM EDTA. The cells recovered were resuspended in RPMI-1640+HS as described (65).
(§4) Cell culture inserts containing polyethylene terephthalate filters, 8-μm pore size (Becton-Dickinson), were overlaid with 0.1 ml of Matrigel (20-25 μg protein/filter) (Collaborative Research, Bedford, Mass.), and incubated at room temperature until they dried. These Matrigel-coated filters were washed with phosphate buffered saline containing 1.0 mM Mg^2+ and 1.0 mM Ca^2+ (PBS). 0.1 ml of a PBS solution (pH 7.2) containing the indicated amount of purified chick brain tenascin was added to some of the inserts. The filters were incubated at room temperature until they dried. These protein-coated filters were washed again with PBS and used within 12 h for cell migration studies. To prepare collagen I-coated inserts, filters were coated with rat tail collagen I (ICN Biochemicals, Costa, Mesa, Calif.) (400 μg/ml in PBS), by adding 0.1 ml of this solution to an insert and incubating the inserts at room temperature for 24 h. Some of these collagen I-coated filters were then incubated with tenascin as described above.
Monocytes: Cell culture inserts were placed in 16 mm wells containing 0.5 mls of RPMI-1640+HS or AS in the presence or absence of a chemoattractant. 0.5 ml of RPMI-1640+HS or AS serum containing between 2-10×10^5 mononuclear phagocytes was added to the upper chamber of the inserts and the inserts were placed in a humidified CO2 incubator at 37° C. After 24 h the medium in the lower chamber was recovered and its cell content assayed using either a Coulter counter or a hemocytometer. […] Cell counts reported are the average number of cells recovered from the medium in the lower compartment of chemotaxis chambers. Over 90% of the cells in the lower chamber were identified as monocytes based on their morphology, their capacity to phagocytose IgG coated sheep red cells, and their staining with fluorescein-conjugated anti α,β monoclonal antibody (Oncogene Sciences, Uniondale, N.Y.). Unless otherwise indicated, all values are the average of duplicate samples run in parallel in a representative experiment. Each experiment was repeated at least three times with similar results.

The subject of test [6] is PMNs. As to the kind of experiment: PMN migration through Matrigel or Matrigel/tenascin coated filters. Conditions: for Inhibition of chemoattractant-stimulated PMN migration: Matrigel-coated filters, depending on chemoattractant, human tenascin 5 μg. How it is done:
Polymorphonuclear leukocytes (PMN), were prepared as described (7) from heparinized human blood by sedimentation on Ficoll-Hypaque gradients. Contaminating red blood cells were removed by hypotonic lysis. The purity of PMN isolated by this method was >95% as determined by Wright-Giemsa staining.
as §4
PMN: 250 μl of PBS [supplemented with 5.5 mM glucose and 0.1% human serum albumin (HSA) (PBSG-HSA)] containing 1×10^6 PMNs was placed in the upper compartment of each insert. 250 μl of PBSG-HSA with or without chemoattractant, as indicated, was added to the bottom compartment. The inserts were incubated for about 4 h at 37° C. in a humidified atmosphere containing 95% air/5% CO2. […] The medium in the lower compartment was collected and its content of PMN determined using a Coulter Counter, as described in Example 1.

The test system of test [7] is monocytes. As to the kind of experiment: Monocyte migration through collagen I coated inserts. Conditions: tenascin added to collagen I. How it is done:
as §3
Cell culture inserts containing polyethylene terephthalate filters, 8-μm pore size (Becton-Dickinson), were overlaid with 0.1 ml of Matrigel (20-25 μg protein/filter) (Collaborative Research, Bedford, Mass.), and incubated at room temperature until they dried. These Matrigel-coated filters were washed with phosphate buffered saline containing 1.0 mM Mg^2+ and 1.0 mM Ca^2+ (PBS). 0.1 ml of a PBS solution (pH 7.2) containing the indicated amount of purified chick brain tenascin was added to some of the inserts. The filters were incubated at room temperature until they dried. […]

For a further test, the system named is PMN or monocytes. As to the kind of experiment: Adhesion of PMN or monocytes to tenascin-impregnated Matrigel.
Test [8] deals with PMNs. As to the kind of experiment: PMN migration through fibrin gels with anti-integrin antibodies or synthetic peptides. As to conditions: PMNs incubated with antibody (2 μg/ml) or peptide (1 mg/ml); fMLP 10^−7M, 6 hrs. How it is done: Fibrin gels were formed on filters of cell culture inserts as described in Experimental Peocedures and fMLP (10^−7M) or LTB4 (10^−7M) was added to the medium in the lower chamber. FIG. 10A—10^6 PMNs were pre-incubated in medium containing antibodies against rat or human β1 integrins, or antibodies against the α5 subunit of human α5β1 integrin, or against the human β2 integrin complement receptor 3 (CR3), or against the human β2 integrin p150/95, or against human β3 integrins for 15 min at 4° C. PMNs were placed in the upper chamber of cell culture inserts in the same medium and the inserts were incubated for 6 hrs at 37° C., at which time the number of cells in the lower chamber was determined using a Coulter Counter. […] The mixture was added to the upper chamber of cell culture inserts and the inserts were incubated for 6 hrs at 37° C., at which time the number of cells in the lower chamber was counted as in FIG. 10A.
Fibrin gels: 1 Unit of thrombin (a gift from Dr. John Fenton, Albany Medical College, Albany, N.Y.), in 5 μl of PBS was added first to each insert. […] The mixture was incubated at 37° C. for 5 min to allow fibrin gel formation (determined by visual inspection). […] The fibrin gels formed were about 1 mm thick as measured under a dissecting microscope. […]

The mark [9] stands for this setting: added in combination in bottom compartment, 6 hr.

Turning to `CSCC[C@H](NC=O)C(=O)N[C@@H](CC(C)C)C(=O)N[C@@H](Cc1ccccc1)C(=O)O` [fMLP, formyl-methionyl-leucyl-phenylalanine], the “Effect of serum on PMN migration through fibrin gels in response to the chemoattractant” value with PMNs [1] (20% human serum in upper and lower compartments) was “nor did the presence of serum promote”. In the test on PMNs [1] (setting [9]), the “Effect on PMN migration through fibrin gels in response to IL-8” value is listed as “reduced” and the “Effect on PMN migration through fibrin gels in response to LTB4” value is “reduced”. In addition, the “PMN migration through fibrin gels (in words)” value in the test on PMNs [1] (chemoattractant in lower compartment, zymosan-activated human plasma 2-10%) was “not”. Also, the “PMN migration through gels of Matrigel or collagen IV” value in the test on PMNs [2] is reported as “stimulated PMN migration”. Moreover, the “PMN migration through filters with adsorbed fibrinogen or fibronectin” value in the test on PMNs [3] is given as “promoted PMN migration”. Besides, in the test on PMNs [4], the “PMNs forming zones of adhesion that excluded 10 kDa Rh-PEG” value is “about 50%”. Also, in the test with monocytes [5] (Matrigel alone), the “Cultured monocytes that migrated through Matrigel-coated inserts” value was ~15% and the “Freshly isolated human monocytes that migrated through Matrigel-coated inserts” value was “About 20%”. Further, in the test on PMNs [6] (Matrigel alone), the “PMNs that migrated through Matrigel-coated inserts” value is ~10%.

“chick brain tenascin: tenascin purified from 14-day embryonic chick brains”: in the test on monocytes [5], the “Inhibition of chemoattractant-stimulated monocyte migration” value is 65-80%. Besides, the “Amount causing half maximal inhibition of TNF-stimulated monocyte migration” value in the test with monocytes [5] (amount added to Matrigel-coated insert, cultured monocytes, 24 h) is listed as “about 0.75 μg”. For the same compound, in the test with monocytes [5] (tenascin added to Matrigel), the “Effect on monocyte migration through Matrigel in response to TNF, fMLP or LTB4” value was “significantly reduced” and the “Effect on monocytes that migrated in the absence of chemoattractant” value is reported as “no significant effect”. Moreover, the “Inhibition of chemoattractant-stimulated PMN migration” value with PMNs [6] was 65-80%. Besides, in the test with PMNs [6] (tenascin added to Matrigel), the “Effect on PMN migration through Matrigel in response to TNF, fMLP or LTB4” value was “significantly reduced” and the “Effect on PMN that migrated across Matrigel in the absence of chemoattractant” value is given as “further reduced”. Moreover, in the test on monocytes [7], the “Reduction of TNF- or LTB4-stimulated monocyte migration through collagen I coated inserts” value was “at least 60%”. Further, the “Number of chemoattractant-stimulated PMN or monocytes adhered to tenascin-impregnated Matrigel over Matrigel alone” value in the test with PMN or monocytes is reported as “no increase”.

GRGDSP: the “PMN migration through fibrin gels in response to fMLP” value in the test with PMNs [8] was “migrated through fibrin gels”.

For “human tenascin: tenascin obtained from cultured human glioma cells, from GIBCO-BRL”, in the test with monocytes [5], the “Inhibition of chemoattractant-stimulated monocyte migration” value is listed as “at least 50%”. The “Inhibition of chemoattractant-stimulated PMN migration” value with PMNs [6] is given as “at least 50%”.
